Experiments:
[1] = Accelerated stability test (40° C., RH75%), sealed in penicillin bottles; assay type: physicochemical; conditions: for Marked content (%) / Property / Related substance (%): accelerated, 40° C.
Procedure: (§1) The sample of the puerarin hydrate above (prepared by method of Example 1) and anhydrous puerarin (anhydrous puerarin was prepared by: drying the hydrate as prepared in Example 1 at 90-105° C. in the presence of phosphorus pentoxide under vacuum for 24-72 hours or more to obtain an anhydrous puerarin, and the water content of anhydrous puerarin was usually lower than 1.0% as measured by Karl Fisher method) were sealed in penicillin bottles to perform accelerated stability test (chromatography conditions: chromatography column: C18 (150 mm×4.6 mm, 5 μm); mobile phase: 0.1% citric acid solution-methanol (75:25); flow rate: 1 ml/min; temperature: room temperature; detection wavelength: 250 nm). […] Hygroscopicity test was performed according to the Pharmacopoeia of the People's Republic of China: about 5 g of anhydrous puerarin and the crystalline hydrate of the present invention were taken, placed in dry watch glasses with constant weight, weighed precisely. Samples were taken separately at 0 h and 48 h of the test at 25° C. and relative humidity of 75%, and hygroscopicity weight gain percentages were calculated.

[2] = Hygroscopicity test according to the Pharmacopoeia of the People's Republic of China; assay type: physicochemical; conditions: 25° C., relative humidity 75%, 48 h
Procedure: as §1

[3] = Sticking in direct tableting of powder; assay type: physicochemical; conditions: tableting 200 mg of powder; printed '1-3 times or higher'
Procedure: In addition, the puerarin hydrate of the present invention overcomes the drawback of deliquescent property of anhydrous puerarin, so that it is not necessary to isolate air to prevent adhesion, and has good sliding property, and the manipuility for manufacturing preparations is improved. Anhydrous puerarin has sticking phenomenon when its powder is used for direct tableting. When tableting 200 mg of powder, anhydrous puerarin has a sticking amount 1-3 times or higher than that of puerarin monohydrate.

[4] = test system: chronic ocular hypertension; assay: Effects on chronic ocular hypertension of rabbits (dexamethasone model); assay type: in vivo; conditions: within 24 hours, puerarin hydrate 1% (W/V), betaxolol 0.5% (W/V)
Procedure: Chronic Ocular Hypertension Models: 32 rabbits, half male and half female, were subjected to sub-conjunctive injection with 0.5 mg of dexamethasone under corneal limbus, once every other day, for consecutive 3 weeks, to obtain chronic ocular hypertension models, then randomly divided into physiological saline group, betaxolol group [0.5% (W/V)], puerarin hydrate group [1% (W/V)]. The maximum decrease of intraocular pressure was measured within 24 hours.

ACE = biological target: T1, ACE (Rattus norvegicus, UniProt P47820); assay: Effects on inhibiting ACE activity (rat blood serum after intraperitoneal injection); assay type: in vivo, Wistar rats; conditions: rats, 200 mg/kg intraperitoneal
T1 construct: from tissue; host or cells: blood serum of Wistar rats
T1 sequence (P47820 36-1313): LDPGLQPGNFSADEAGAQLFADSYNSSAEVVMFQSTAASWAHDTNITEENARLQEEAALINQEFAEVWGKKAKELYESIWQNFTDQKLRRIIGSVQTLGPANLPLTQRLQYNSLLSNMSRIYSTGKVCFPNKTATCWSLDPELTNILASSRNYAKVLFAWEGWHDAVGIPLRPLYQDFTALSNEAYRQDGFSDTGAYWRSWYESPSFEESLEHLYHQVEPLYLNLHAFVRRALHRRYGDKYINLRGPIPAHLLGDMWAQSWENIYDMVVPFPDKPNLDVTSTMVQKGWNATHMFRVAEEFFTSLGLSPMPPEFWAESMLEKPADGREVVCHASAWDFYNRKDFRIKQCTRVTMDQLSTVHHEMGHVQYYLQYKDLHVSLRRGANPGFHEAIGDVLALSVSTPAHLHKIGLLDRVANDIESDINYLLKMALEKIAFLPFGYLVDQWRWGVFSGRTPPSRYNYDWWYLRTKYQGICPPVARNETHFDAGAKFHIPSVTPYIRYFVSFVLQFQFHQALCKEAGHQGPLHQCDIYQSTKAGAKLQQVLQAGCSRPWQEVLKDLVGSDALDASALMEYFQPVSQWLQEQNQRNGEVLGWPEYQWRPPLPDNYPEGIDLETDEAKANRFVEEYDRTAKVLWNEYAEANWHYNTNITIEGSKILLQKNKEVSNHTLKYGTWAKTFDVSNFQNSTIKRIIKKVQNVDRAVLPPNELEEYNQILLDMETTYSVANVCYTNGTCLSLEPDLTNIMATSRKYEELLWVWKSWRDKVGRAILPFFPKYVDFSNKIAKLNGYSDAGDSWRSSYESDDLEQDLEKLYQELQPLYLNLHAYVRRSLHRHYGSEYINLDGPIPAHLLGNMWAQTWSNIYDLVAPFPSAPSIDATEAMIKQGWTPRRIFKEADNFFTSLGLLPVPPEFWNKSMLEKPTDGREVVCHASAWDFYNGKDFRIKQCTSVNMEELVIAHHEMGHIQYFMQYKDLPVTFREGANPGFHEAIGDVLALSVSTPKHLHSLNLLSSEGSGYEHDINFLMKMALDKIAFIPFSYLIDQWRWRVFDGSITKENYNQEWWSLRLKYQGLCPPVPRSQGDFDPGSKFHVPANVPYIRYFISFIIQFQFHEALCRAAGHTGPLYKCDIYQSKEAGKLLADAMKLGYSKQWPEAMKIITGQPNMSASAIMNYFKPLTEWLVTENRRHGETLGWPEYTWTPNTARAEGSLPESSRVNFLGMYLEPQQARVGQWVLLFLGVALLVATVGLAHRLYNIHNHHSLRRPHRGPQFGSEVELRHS
Procedure: 24 Wistar rats, 280-300 g, were randomly divided into 3 groups, 8 rats per group, one group was control group, other two groups were separately 100 mg/kg, 200 mg/kg dose groups (which was added with cosolvent to form an injectable solution), subjected to intraperitoneal injection, the control group was administered with physiological saline. 60 min after administration, the rats were anesthetized with 1% pentobarbital sodium, subjected to thoracotomy and blood sample was taken from heart, the blood sample stood at room temperature for 30 min, centrifuged under 3500 r/min at low temperature for 10 min, the supernatant was taken and stored at about −65° C., for test. Measurement of ACE activity: referring to document [WANG, Fumin, et al, Chinese Journal of Laboratory Medicine, 1983, 6(3):145-151], the results were subjected to statistical treatment: the results were expressed in x±S, and data were subjected to analysis of variance and t-test.

sudden deafness = conditions: injection, within 2 weeks after administration; cited from earlier work
β1 receptor = biological target: T2, β1 receptor (Cavia porcellus, UniProt H0W3H1); conditions: ex vivo atrial muscle of guinea pigs; cited from earlier work
T2 construct: ex vivo atrial muscle β1 receptor of guinea pigs; from tissue; host or cells: guinea pig atrial muscle, ex vivo
T2 sequence (H0W3H1 1-470): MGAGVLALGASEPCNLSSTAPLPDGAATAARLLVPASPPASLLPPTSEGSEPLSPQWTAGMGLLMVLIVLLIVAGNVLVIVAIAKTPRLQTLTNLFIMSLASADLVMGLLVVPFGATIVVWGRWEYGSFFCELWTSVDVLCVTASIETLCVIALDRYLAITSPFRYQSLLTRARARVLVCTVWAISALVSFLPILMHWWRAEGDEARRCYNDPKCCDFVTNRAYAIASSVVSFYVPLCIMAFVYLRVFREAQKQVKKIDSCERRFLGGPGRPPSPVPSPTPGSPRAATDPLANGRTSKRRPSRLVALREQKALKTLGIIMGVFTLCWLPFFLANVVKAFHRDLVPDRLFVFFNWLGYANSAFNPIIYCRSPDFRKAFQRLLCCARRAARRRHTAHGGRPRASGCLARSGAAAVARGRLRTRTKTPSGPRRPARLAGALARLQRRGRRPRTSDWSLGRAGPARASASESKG

β2 receptor = biological target: T3, β2 receptor (Cavia porcellus, UniProt Q8K4Z4); conditions: trachea strip of guinea pigs; cited from earlier work
T3 construct: trachea strip β2 receptor of guinea pigs; from tissue; host or cells: guinea pig trachea strip
T3 sequence (Q8K4Z4 whole entry): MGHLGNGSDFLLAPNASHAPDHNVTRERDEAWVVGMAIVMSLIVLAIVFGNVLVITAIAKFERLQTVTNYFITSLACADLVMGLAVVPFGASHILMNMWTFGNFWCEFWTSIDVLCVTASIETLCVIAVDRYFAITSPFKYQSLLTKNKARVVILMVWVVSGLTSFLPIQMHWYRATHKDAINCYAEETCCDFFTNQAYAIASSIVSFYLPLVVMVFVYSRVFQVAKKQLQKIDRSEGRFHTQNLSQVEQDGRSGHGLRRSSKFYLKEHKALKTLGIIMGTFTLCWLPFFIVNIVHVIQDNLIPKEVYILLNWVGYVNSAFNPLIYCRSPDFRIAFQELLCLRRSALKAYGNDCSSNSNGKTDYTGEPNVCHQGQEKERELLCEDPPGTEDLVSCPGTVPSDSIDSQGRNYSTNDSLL

β receptor = conditions: cited from earlier work
blood pressure = conditions: anesthetized dogs, injection; cited from earlier work
[5] = test system: blood pressure and heart rate; conditions: conscious spontaneously hypertensive rats, intraperitoneal injection; cited from earlier work
intraocular pressure = conditions: ocular hypertension rabbit models induced by dexamethasone; cited from earlier work
ethanol intake = conditions: rats, intraperitoneal injection; cited from earlier work
benzodiazepine receptor = conditions: cited from earlier work

O=c1c(-c2ccc(O)cc2)coc2c([C@@H]3O[C@H](CO)[C@@H](O)[C@H](O)[C@H]3O)c(O)ccc12 [Anhydrous puerarin, reference compound]
Increase of related substance, 6 month results compared to 0 month results ([1]; accelerated test 40° C., compared with puerarin monohydrate): higher increase
Hygroscopicity compared with the hydrate of the present invention [2]: much higher
In comparison with 0 h, weight gain, % [2]: 4.26%
Sticking amount relative to puerarin monohydrate [3]: 1-3 times

O=c1c(-c2ccc(O)cc2)coc2c([C@@H]3O[C@H](CO)[C@@H](O)[C@H](O)[C@H]3O)c(O)ccc12 [Sample 2, puerarin monohydrate]
Maximum decrease of intraocular pressure (mmHg) ([4]; monohydrate): 2.4 mmHg

CC(C)NCC(O)COc1ccc(CCOCC2CC2)cc1 (stereo not shown) [Betaxolol, reference compound]
Maximum decrease of intraocular pressure (mmHg) [4]: 1.9 mmHg

O=c1c(-c2ccc(O)cc2)coc2c([C@@H]3O[C@H](CO)[C@@H](O)[C@H](O)[C@H]3O)c(O)ccc12 [Sample 3, puerarin monohydrate]
inhibition at 200 mg/kg (ACE; rat, ip, vs control group, read-out: inhibition rate (%)): 51%
ACE (IU) (ACE; blood taken 60 min after administration): 26.7 ± 6.35 IU

O.O=c1c(-c2ccc(O)cc2)coc2c([C@@H]3O[C@H](CO)[C@@H](O)[C@H](O)[C@H]3O)c(O)ccc12.O=c1c(-c2ccc(O)cc2)coc2c([C@@H]3O[C@H](CO)[C@@H](O)[C@H](O)[C@H]3O)c(O)ccc12 [Sample 5, puerarin 0.5 hydrate]
Marked content (%) ([1]; sampling time 0 month): 99.1%
Property ([1]; sampling time 0 month): off-white powder
Related substance (%) ([1]; sampling time 0 month): <2%
Marked content (%) ([1]; sampling time 1 month): 99.2%
Property ([1]; sampling time 1 month): off-white powder
Related substance (%) ([1]; sampling time 1 month): <2%
Marked content (%) ([1]; sampling time 2 month): 99.2%
Property ([1]; sampling time 2 month): off-white powder
Related substance (%) ([1]; sampling time 2 month): <2%
Marked content (%) ([1]; sampling time 3 month): 99.0%
Property ([1]; sampling time 3 month): off-white powder
Related substance (%) ([1]; sampling time 3 month): <2%
Marked content (%) ([1]; sampling time 6 month): 98.9%
Property ([1]; sampling time 6 month): off-white powder
Related substance (%) ([1]; sampling time 6 month): <2%
In comparison with 0 h, weight gain, % [2]: 1.51%
Maximum decrease of intraocular pressure (mmHg) [4]: 2.5 mmHg

O=c1c(-c2ccc(O)cc2)coc2c([C@@H]3O[C@H](CO)[C@@H](O)[C@H](O)[C@H]3O)c(O)ccc12 [Puerarin, 8-β-D-glucopyranosyl-4′,7-dihydroxylisoflavone]
Patients with good state of nail fold microcirculation and improved audition (sudden deafness): 70%
Action on β1 receptor (β1 receptor): significant antagonistic action
Action on β2 receptor (β2 receptor): relatively great concentration is required
Effect on activation function of adrenalin on adenylate cyclase (β receptor): completely inhibit
Blood pressure (blood pressure): rapid dose-dependent decrease
Blood pressure and heart rate [5]: significantly reduce
Intraocular pressure (intraocular pressure): reduce
Ethanol intake (ethanol intake): significantly reduce
Activity at benzodiazepine receptor (benzodiazepine receptor): antagonist or partial agonist

Source: US20130331345A1, “PUERARIN HYDRATES, PREPARATION METHODS AND USES THEREOF” (priority 2010, published 2013)
